Measurements: ChEMBL document CHEMBL1133305, “Phenyloxazoles and phenylthiazoles as benzamide bioisosteres: synthesis and dopamine receptor binding profiles” (Bioorg Med Chem Lett, 2000)

Experiments:
D(2) dopamine receptor [1] = molecular target: T1, D(2) dopamine receptor (Homo sapiens, UniProt P14416); assay: In vitro displacement of [3H]spiperone from the recombinant human dopamine receptor D2L stably expressed in CHO cells; type: cell-based
D(2) dopamine receptor [2] = molecular target: T1, D(2) dopamine receptor; assay: In vitro displacement of [3H]spiperone from the recombinant human dopamine receptor D2 short form expressed in CHO cells; type: cell-based
D(1A) dopamine receptor = D(1A) dopamine receptor (Bos taurus, UniProt Q95136); assay: In vitro displacement of [3H]- SCH 23390 from the dopamine receptor D1 of bovine striatal membrane
D(1A) dopamine receptor, sequence (Q95136 whole entry): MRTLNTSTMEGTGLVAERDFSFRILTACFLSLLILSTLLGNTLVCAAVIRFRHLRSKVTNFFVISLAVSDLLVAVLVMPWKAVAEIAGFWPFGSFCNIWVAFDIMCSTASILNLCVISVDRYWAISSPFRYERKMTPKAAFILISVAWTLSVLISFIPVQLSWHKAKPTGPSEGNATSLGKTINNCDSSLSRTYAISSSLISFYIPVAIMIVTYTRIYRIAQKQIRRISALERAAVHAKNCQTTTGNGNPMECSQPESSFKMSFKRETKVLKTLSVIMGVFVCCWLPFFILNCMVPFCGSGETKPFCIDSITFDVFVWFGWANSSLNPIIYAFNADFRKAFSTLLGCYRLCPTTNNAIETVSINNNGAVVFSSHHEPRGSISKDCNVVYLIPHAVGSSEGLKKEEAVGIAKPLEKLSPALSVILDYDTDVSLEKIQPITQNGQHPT

D(4) dopamine receptor = molecular target: T2, D(4) dopamine receptor (Homo sapiens, UniProt P21917); assay: In vitro displacement of [3H]spiperone from the recombinant human dopamine receptor D4 expressed in CHO cells; type: cell-based
T2 sequence (P21917 whole entry): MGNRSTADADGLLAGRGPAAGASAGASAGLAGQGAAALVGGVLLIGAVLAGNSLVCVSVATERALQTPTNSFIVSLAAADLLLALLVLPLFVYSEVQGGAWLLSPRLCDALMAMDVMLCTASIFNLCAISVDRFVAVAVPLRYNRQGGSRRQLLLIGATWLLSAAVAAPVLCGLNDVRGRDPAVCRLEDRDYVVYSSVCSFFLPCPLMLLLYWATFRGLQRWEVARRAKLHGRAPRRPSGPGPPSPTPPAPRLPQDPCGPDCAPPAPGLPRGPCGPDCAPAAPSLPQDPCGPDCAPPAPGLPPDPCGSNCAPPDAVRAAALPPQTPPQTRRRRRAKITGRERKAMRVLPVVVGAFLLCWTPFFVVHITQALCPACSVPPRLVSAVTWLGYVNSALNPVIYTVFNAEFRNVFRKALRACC

D(3) dopamine receptor = D(3) dopamine receptor (Homo sapiens, UniProt P35462); assay: In vitro displacement of [3H]spiperone from the cloned human dopamine receptor D3 stably expressed in CHO cells; type: cell-based
D(3) dopamine receptor, sequence (P35462 whole entry): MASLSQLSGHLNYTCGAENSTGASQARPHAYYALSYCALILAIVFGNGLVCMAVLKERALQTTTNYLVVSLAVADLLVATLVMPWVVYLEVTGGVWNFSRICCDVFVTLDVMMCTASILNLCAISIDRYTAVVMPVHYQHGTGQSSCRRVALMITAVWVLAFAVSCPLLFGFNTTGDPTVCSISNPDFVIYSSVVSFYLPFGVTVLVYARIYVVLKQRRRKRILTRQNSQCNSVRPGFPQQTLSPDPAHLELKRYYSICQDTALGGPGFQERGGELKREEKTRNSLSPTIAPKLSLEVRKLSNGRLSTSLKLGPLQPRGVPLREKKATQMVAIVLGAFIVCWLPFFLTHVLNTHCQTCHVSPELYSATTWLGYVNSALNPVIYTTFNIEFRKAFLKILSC

T1 sequence (P14416 whole entry): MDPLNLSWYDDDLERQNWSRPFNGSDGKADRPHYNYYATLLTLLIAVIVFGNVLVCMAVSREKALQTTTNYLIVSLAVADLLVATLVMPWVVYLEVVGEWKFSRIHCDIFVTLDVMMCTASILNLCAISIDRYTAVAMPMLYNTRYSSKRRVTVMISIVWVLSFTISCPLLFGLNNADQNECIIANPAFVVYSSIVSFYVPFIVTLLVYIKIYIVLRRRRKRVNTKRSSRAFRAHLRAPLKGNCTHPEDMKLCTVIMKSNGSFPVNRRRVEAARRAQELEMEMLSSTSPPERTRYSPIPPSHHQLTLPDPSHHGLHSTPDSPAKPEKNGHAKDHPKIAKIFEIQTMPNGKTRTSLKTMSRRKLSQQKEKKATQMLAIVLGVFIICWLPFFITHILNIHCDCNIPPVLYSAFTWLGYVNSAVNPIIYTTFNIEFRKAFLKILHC

Row | SMILES | Ki (D(2) dopamine receptor [1]) [nM] | Ki (D(2) dopamine receptor [2]) [nM] | Ki (D(1A) dopamine receptor) [nM] | Ki (D(4) dopamine receptor) [nM] | Ki (D(3) dopamine receptor) [nM]
1 | COc1ccc(Br)cc1-c1nc(CNCCC2CCN(Cc3ccccc3)C2)co1 (stereo not given) | 510 | 310 | 6600 | 150 | 75
2 | c1ccc(-c2nc(CN3CCN(c4ccccc4)CC3)cs2)cc1 | 2300 | 1060 | 19500 | 450 | 2050
3 | c1ccc(CN2CCC(NCc3csc(-c4ccccc4)n3)CC2)cc1 | 23000 | 13500 | 6800 | 53 | 2300
4 | COc1ccc(Br)cc1-c1nc(CNC2CCN(Cc3ccccc3)CC2)co1 | 940 | 630 | 12500 | 390 | 580
5 | COc1ccc(Br)cc1-c1nc(CN2CCN(Cc3ccccc3)CC2)cs1 | 210 | 85 | 10500 | 370 | 640
6 | COc1ccc(Br)cc1-c1ncc(CNC[C@@H]2CCN(Cc3ccccc3)C2)[nH]1 | 6250 | 2750 | 8900 | 1110 | 1300
7 | COc1ccc(Br)cc1-c1nc(CN2CCN(Cc3ccccc3)CC2)co1 | 1500 | 790 | 15500 | 710 | 1050
8 | c1ccc(-c2nc(CN3CCN(c4ccccc4)CC3)co2)cc1 | 3000 | 1750 | 11500 | 250 | 3950
9 | COc1ccc(Br)cc1-c1nc(CNC2CCN(Cc3ccccc3)CC2)cs1 | 195 | 105 | 4500 | 400 | 205
10 | COc1ccc(Br)cc1-c1nc(CNC[C@@H]2CCN(Cc3ccccc3)C2)co1 | 510 | 210 | 6750 | 20 | 83
11 | c1ccc(CN2CC[C@@H](CNCc3csc(-c4ccccc4)n3)C2)cc1 (stereo in doubt; 4q) | 7900 | 5050 | 8850 | 390 | 660
12 | COc1ccc(Br)cc1-c1nc(CN[C@@H]2CCN(Cc3ccccc3)C2)co1 | 8250 | 6600 | 16000 | 510 | 1850
13 | COc1ccc(Br)cc1-c1nc(CN2CCN(c3ccccc3)CC2)co1 | 690 | 330 | 4850 | 370 | 660
